# Values joined by “and” are separate entries in the source; they are usually repeats but may differ in a detail not shown here. Equal values may be shown once.
# Key:
# leukemia P388 cells [1] = experiment: Leukemia P388 in mice: ascitic fluid and survival (Example 14); conditions: for Accumulation of ascitic (weight gain, %): leukemia P388
# leukemia P388 cells [2] = experiment: Leukemia P388 in mice: serum cytokines, ascitic fluid, survival (Example 5); conditions: for Accumulation of ascitic fluid (weight gain) / Concentration in serum: IFNα / Concentration in serum: IL-1 / Concentration in serum: IL-2 / Concentration in serum: IL-6 / Concentration in serum: TNFα: P388 mice
# Method: (§3) An influence of 7 day course of test article daily administration was studied in respect of variations of serum cytokine levels (IL-1, IL-2, IL-6, IFNα, TNF). In parallel, the tumor progression was estimated using the two integral indices: pace of mouse weight gain due to accumulation of ascitic fluid, and by animal mean survival time after inoculation.
# (§4) The study was carried out on DBA/2 mice weighing 18-21 g. First, tumor cell passage was performed using 6 animals for each cell line. For this, cells kept at the temperature of the liquid nitrogen were de-frozen and adjusted to the concentration of 5×10^6 cells/mL by sterile Hanks' solution. Then, 6 mice were intraperitoneally inoculated with 0.2 mL of each line cellular suspension.
# (§5) Ascitic fluid was collected 6 days after the inoculation with L1210 cells and 8 days after the inoculation with P388 ones. Thus obtained, the samples of passaged tumor cells were used for the main experiments. The fluid liquid was dissolved by sterile Hanks' solution so that cell concentration be 5×10^6 cells/mL for P388 cells and 5×10^5 cells/mL for L1210 cells.
# (§6) Nine groups of animals with no less than 15 mice each were formed for experiments with either tumor cell line. Mice were inoculated with 0.2 mL of resultant cell suspensions per mouse (10^6 P388 cells/mouse, and 10^5 L1210 cells/mouse). 24 hours after the tumor cells inoculation. animals were given the first injections of the test articles or vehicles. The test article injections were made daily till the 14th day of the experiment or until the animal's death. The volume of solutions injected comprised 0.01 mL/g body weight.
# (§7) #1—intact animals receiving imitation of tumor cell inoculation (injection of normal saline) which further were treated with normal saline throughout the entire experiment;
# (§8) #2—control animals, inoculated with tumor cells, which further were treated with test article vehicle (normal saline);
# [3] = test system: rat embrional fibroblasts (REF) after UV-irradiation; experiment: Number of REF cells after UV-irradiation; type: cell-based
# Summary of the method: (§1)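 REF cells in DMEM with 10% FCS, seeded at 800 000 cells/mL, were incubated with test articles for 72 h and counted per mL at 0, 24, 48 and 72 h. In the apoptosis set, cells received UV at 4 Dj with compounds added immediately after, and were counted every 24 h.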
# [4] = test system: Erlich adenocarcinoma cells; experiment: Erlich adenocarcinoma in mice: ascitic fluid and survival (Example 14); conditions: for Accumulation of ascitic (weight gain, %): Erlich adenocarcinoma
# Method: (§9) An influence of 7 day course of test article daily administration was studied in respect of tumor progression, which was estimated using the two integral indices: pace of mouse weight gain due to accumulation of ascitic fluid, and by animal mean survival time after inoculation.
# (§10) The study was carried out on DBA/2 mice weighing 18-21 g. First, tumor cell passage was performed using 6 animals for each cell line. For this, cells kept at the temperature of the liquid nitrogen were de-frozen and adjusted to the concentration of 5×10^6 cells/mL by sterile Hanks' solution. Then, 6 mice were intra peritoneally inoculated with 0.2 mL of each line cellular suspension.
# (§11) Ascitic fluid was collected 6 days after the inoculation with L1210 cells, 8 days after the inoculation with P388 ones and 18 days after inoculation with Erlich adenocarcinoma cells. Thus obtained, the samples of passaged tumor cells were used for the main experiments. The fluid liquid was dissolved by sterile Hanks' solution so that cell concentration be 5×10^6 cells/mL for P388 cells and Erlich adenocarcinoma cells, 5×10^5 cells/mL for L1210 cells.
# (§12) Eleven groups of animals with no less than 15 mice each were formed for experiments with either tumor cell line. Mice were inoculated with 0.2 mL of resultant cell suspensions per mouse (10^6 P388 and Erlich adenocarcinoma cells/mouse, and 10^5 L1210 cells/mouse). 24 hours after the tumor cells inoculation, animals were given the first injections of the test articles or vehicles. The test article injections were made daily till the 14th day of the experiment or till the animal death. The volume of solutions injected comprised 0.01 mL/g body weight.
# as §7, §8
# leukemia L1210 cells [5] = experiment: Leukemia L1210 in mice: serum cytokines, ascitic fluid, survival (Example 5); conditions: for Accumulation of ascitic fluid (weight gain) / Concentration in serum: IFNα / Concentration in serum: IL-1 / Concentration in serum: IL-2 / Concentration in serum: IL-6 / Concentration in serum: TNFα: L1210 mice
# Method: as §3, §4, §5, §6, §7, §8
# normal human lymphocytes = experiment: Proliferation/apoptosis of normal human lymphocytes (cell number per well, flow cytofluorometry); type: cell-based
# [6] = test system: rat embrional fibroblasts (REF); experiment: Number of REF cells throughout 72-hr incubation; type: cell-based
# Summary of the method: as §1
# leukemia L1210 cells [7] = experiment: Leukemia L1210 in mice: ascitic fluid and survival (Example 14); conditions: for Accumulation of ascitic (weight gain, %): leukemia L1210
# Method: as §9, §10, §11, §12, §7, §8
# HL-60 cells = experiment: Proliferation/apoptosis of HL-60 tumor cells (cell number per well, flow cytofluorometry)
# Method: Subsequent evaluation of the cell cycle parameters was carried out by the flow cytofluorometry technique.
# A mononuclear fraction of blood leukocytes were obtained by centrifugation in gradient of fikoll-metrizoat (Histopaque, Sigma). […] Cell viability was estimated by the Trypan blue exclusion method, then the cell suspension was placed into wells of 96-well microtiter plates—200,000 cells per well. […] Cultivation was carried out in closed flasks, the medium volume was 12 mL, it was changed every four days by centrifugation. The nature of the cells growth was suspensive. […] 50 μL of each test solution were added to one or the other cell culture and thereafter cells were cultivated for 24-96 hours. Then, they were tested by the flow cytofluorometry to estimate DNA content in the cell nuclei. In case of apoptosis-like cellular death, the portion of cell nuclei with normal content of DNA became reduced, while the portion of cell nuclei containing abnormally small DNA quantity became larger.
# The analysis procedure was the following: after incubation completion, cells were centrifuged and transferred to a standard phosphate isotonic buffer pH 7.4, containing RNA-ase A (20 μg/mL), ethidium bromide (fluorometric indicator for double stranded nucleic acid. 10 μg/mL) and MgCl2 (5 mM). After the cells were disintegrated by nonionic detergent Triton X-100 (final concentration 0.1%). The suspension of cell nuclei thus obtained was analyzed by flow cytofluorometry with an argon laser as a source of light (wave length 488 nm). The red fluorescence due to DNA bound ethidium bromide was taken to be the measure of DNA content in the cell nuclei.
# [8] = test system: e-ras cell line (REF transformed with E1A and ras-oncogene); experiment: Number of clones of e-ras cells throughout 72-hr incubation; type: cell-based, rat
# Summary of the method: (§2)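 REF and E1A/ras-transformed REF (e-ras) cells in DMEM with 10% fetal calf serum; e-ras seeded at 300 cells per 5 cm dish, test articles added after 7 days of growth. For apoptosis, UV at 4 Dj with test articles added immediately after. Clones per dish counted every 24 h over 72 h; DNA fragmentation by agarose gel electrophoresis.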
# [9] = test system: e-ras cells after UV-irradiation; experiment: Number of clones of e-ras cells after UV-irradiation; type: cell-based, rat
# Summary of the method: as §2
# [10] = test system: CBA mice with radiation-induced hemo- and immunodepression; experiment: Radiation-induced hemo- and immunodepression in mice; type: in vivo, mouse; conditions: mice irradiated 1 Gy, 5 mg/kg IP daily for 7 days, day 8 post-exposure
# Method: The study was designed to evaluate efficacy of 7-day daily administration of the test articles (with the dosing started 2 hours post-exposure) on the capability of the splenocytes from mice exposed to radiation to produce IL-2 and GM-CSF in vitro. In addition, the number of blood leukocytes and lymphocytes and the spleen and bone marrow cellularity (number of karyocytes), as well as splenic and medullary colony-stimulating capacity, were determined at 8 days post-exposure.
# Male CBA mice (18 to 20 g body weight) were irradiated with single dose of 180 kV X-rays filtered with 0.5 mm Cu (at 15 mA, distance—70 cm, duration 2 min. and 28 sec.).
# The total absorbed dose comprised approximately 1 Gy. Five groups of animals (with no less than 12 mice in each) were formed. Group description is represented below.
# Injections were performed during 7 days: once a day, daily.
# Twenty four hours after the completion of 7 day treatment course (on the 8th day after the irradiation). mice were euthanized and splenocyte cultures were aseptically prepared for assessment of spontaneous production of IL-2 and GM-CSF by the spleen lymphocytes in vitro.
# Simultaneously, blood, spleen and marrow samples were collected for blood leukocyte and lymphocyte, and spleen and marrow nucleated cell counting.
# Additionally, hemopoietic colony formation ability of spleen and bone marrow cells was, assessed by the method of direct count of colony forming units (CFU) in the spleens of irradiated CBA mice receiving intravenously spleen or bone marrow cells obtained from animals of control or test groups.
# [11] = test system: CBA mice with cyclophosphamide-induced hemo- and immunodepression; experiment: Cyclophosphamide-induced hemo- and immunodepression in mice; type: in vivo, mouse; conditions: 5 mg/kg IP daily for 5 days
# Method: The study was designed to evaluate the effect of a 5-day long administration of the test articles on the capability of the CP-treated murine splenocytes to produce IL-2 and GM-CSF in vitro. In addition, the number of blood leukocytes and lymphocytes and the bone marrow cellularity (number of karyocytes) were determined at 8 days after CP administration. Some animals receiving CP were then challenged with sheep red blood cells (SRBC), and the humoral immune response to the antigen was evaluated.
# Male CBA mice (18 to 20 g body weight) were given a single intraperitoneal injection of CP in a dose of 50 mg/kg. […] Group description is represented below.
# Injections were performed during 5 days: once a day, daily.
# Twenty four hours after the completion of 5 day treatment course (on the 8th day after the CP injection), mice were euthanized and splenocyte cultures were aseptically prepared for assessment of spontaneous production of IL-2 and GM-CSF by the spleen lymphocytes in vitro.
# Simultaneously, blood and marrow samples were collected for blood leukocyte and lymphocyte, and marrow nucleated cell counted,
# Serum samples from immunized animals were tested on level of SRBC agglutinins (the day 8 after the CP injection, and the day 7 after the immunization).
# [12] = cyclophosphamide-treated mice, day 8 after CP
smiles,measurement,setting,value
"OO [0.003% H2O2, hydrogen peroxide]","Accumulation of ascitic (weight gain, %)",leukemia P388 cells [1]; number of injection 0,0.7 ± 0.2%
same,"Accumulation of ascitic (weight gain, %)",leukemia P388 cells [1]; number of injection 3,4.1 ± 0.4%
same,"Accumulation of ascitic (weight gain, %)",leukemia P388 cells [1]; number of injection 7,19.0 ± 2.1%
same,Mean survival time,leukemia P388 cells [1]; mice inoculated with leukemia P388 cells,21.2 ± 0.8
same,Accumulation of ascitic fluid (weight gain),leukemia P388 cells [2]; 0 injections,0.63 ± 0.15%
same,Concentration in serum: IFNα,leukemia P388 cells [2]; 0 injections,129. ± 10.0 pg/mL
same,Concentration in serum: IL-1,leukemia P388 cells [2]; 0 injections,15.5 ± 2.04 pg/mL
same,Concentration in serum: IL-2,leukemia P388 cells [2]; 0 injections,14.95 ± 2.16 pg/mL
same,Concentration in serum: IL-6,leukemia P388 cells [2]; 0 injections,134.0 ± 15.6 pg/mL
same,Concentration in serum: TNFα,leukemia P388 cells [2]; 0 injections,119. ± 9.13 pg/mL
same,Accumulation of ascitic fluid (weight gain),leukemia P388 cells [2]; 3 daily injections,5.4 ± 0.62%
same,Concentration in serum: IFNα,leukemia P388 cells [2]; 3 daily injections,205.8 ± 18.3 pg/mL
same,Concentration in serum: IL-1,leukemia P388 cells [2]; 3 daily injections,44.7 ± 6.14 pg/mL
same,Concentration in serum: IL-2,leukemia P388 cells [2]; 3 daily injections,22.0 ± 2.81 pg/mL
same,Concentration in serum: IL-6,leukemia P388 cells [2]; 3 daily injections,156.0 ± 16.3 pg/mL
same,Concentration in serum: TNFα,leukemia P388 cells [2]; 3 daily injections,144.5 ± 12.8 pg/mL
same,Accumulation of ascitic fluid (weight gain),leukemia P388 cells [2]; 7 daily injections,20.3 ± 2.28%
same,Concentration in serum: IFNα,leukemia P388 cells [2]; 7 daily injections,190. ± 16.7 pg/mL
same,Concentration in serum: IL-1,leukemia P388 cells [2]; 7 daily injections,28.6 ± 4.11 pg/mL
same,Concentration in serum: IL-2,leukemia P388 cells [2]; 7 daily injections,40.8 ± 5.12 pg/mL
same,Concentration in serum: IL-6,leukemia P388 cells [2]; 7 daily injections,110.9 ± 12.5 pg/mL
same,Concentration in serum: TNFα,leukemia P388 cells [2]; 7 daily injections,248. ± 20.7 pg/mL
same,Mean survival time,"leukemia P388 cells [2]; mice inoculated with leukemia P388 cells, daily injections till day 14 or death",9.9 ± 0.24
same,number of REF cells after UV-irradiation (M ± m),[3]; 0 hours,822 ± 11 × 10^3 cells
same,number of REF cells after UV-irradiation (M ± m),[3]; 24 hours,365 ± 14 × 10^3 cells
same,number of REF cells after UV-irradiation (M ± m),[3]; 48 hours,258 ± 33 × 10^3 cells
same,number of REF cells after UV-irradiation (M ± m),[3]; 72 hours,159 ± 24 × 10^3 cells
same,"Accumulation of ascitic (weight gain, %)",[4]; number of injection 0,0.9 ± 0.2%
same,"Accumulation of ascitic (weight gain, %)",[4]; number of injection 3,14.1 ± 0.6%
same,"Accumulation of ascitic (weight gain, %)",[4]; number of injection 7,27.2 ± 1.2%
same,Mean survival time,[4]; mice inoculated with Erlich adenocarcinoma cells,9.8 ± 0.8
same,Accumulation of ascitic fluid (weight gain),leukemia L1210 cells [5]; 0 injections,0.79%
same,Concentration in serum: IFNα,leukemia L1210 cells [5]; 0 injections,133.7 pg/mL
same,Concentration in serum: IL-1,leukemia L1210 cells [5]; 0 injections,17.07 pg/mL
same,Concentration in serum: IL-2,leukemia L1210 cells [5]; 0 injections,16.18 pg/mL
same,Concentration in serum: IL-6,leukemia L1210 cells [5]; 0 injections,120.9 pg/mL
same,Concentration in serum: TNFα,leukemia L1210 cells [5]; 0 injections,110. pg/mL
same,Accumulation of ascitic fluid (weight gain),leukemia L1210 cells [5]; 3 daily injections,6.12%
same,Concentration in serum: IFNα,leukemia L1210 cells [5]; 3 daily injections,189. pg/mL
same,Concentration in serum: IL-1,leukemia L1210 cells [5]; 3 daily injections,38.15 pg/mL
same,Concentration in serum: IL-2,leukemia L1210 cells [5]; 3 daily injections,23.5 pg/mL
same,Concentration in serum: IL-6,leukemia L1210 cells [5]; 3 daily injections,140. pg/mL
same,Concentration in serum: TNFα,leukemia L1210 cells [5]; 3 daily injections,158.0 pg/mL
same,Accumulation of ascitic fluid (weight gain),leukemia L1210 cells [5]; 7 daily injections,21.61%
same,Concentration in serum: IFNα,leukemia L1210 cells [5]; 7 daily injections,209. pg/mL
same,Concentration in serum: IL-1,leukemia L1210 cells [5]; 7 daily injections,23.6 pg/mL
same,Concentration in serum: IL-2,leukemia L1210 cells [5]; 7 daily injections,45.5 pg/mL
same,Concentration in serum: IL-6,leukemia L1210 cells [5]; 7 daily injections,103. pg/mL
same,Concentration in serum: TNFα,leukemia L1210 cells [5]; 7 daily injections,220.0 ± pg/mL
same,Mean survival time,"leukemia L1210 cells [5]; mice inoculated with leukemia L1210 cells, daily injections till day 14 or death",9.7 ± 0.21
same,number of normal lymphocytes per well,normal human lymphocytes; 24 hours incubation,28 ± 2 × 10^4 cells
same,number of normal lymphocytes per well,normal human lymphocytes; 48 hours incubation,73 ± 5 × 10^4 cells
same,number of normal lymphocytes per well,normal human lymphocytes; 72 hours incubation,123 ± 8 × 10^4 cells
same,number of normal lymphocytes per well,normal human lymphocytes; 96 hours incubation,206 ± 8 × 10^4 cells
same,number of REF cells (M ± m),[6]; 0 hours of incubation,822 ± 11 × 10^3 cells
same,number of REF cells (M ± m),[6]; 24 hours of incubation,1365 ± 14 × 10^3 cells
same,number of REF cells (M ± m),[6]; 48 hours of incubation,2598 ± 63 × 10^3 cells
same,number of REF cells (M ± m),[6]; 72 hours of incubation,5059 ± 34 × 10^3 cells
same,"Accumulation of ascitic (weight gain, %)",leukemia L1210 cells [7]; number of injection 0,0.77 ± 0.2%
same,"Accumulation of ascitic (weight gain, %)",leukemia L1210 cells [7]; number of injection 3,6.1 ± 0.4%
same,"Accumulation of ascitic (weight gain, %)",leukemia L1210 cells [7]; number of injection 7,19.2 ± 2.2%
same,Mean survival time,leukemia L1210 cells [7]; mice inoculated with leukemia L1210 cells,9.2 ± 0.8
same,number of HL-60 cells per well,HL-60 cells; 24 hours incubation,122 ± 6 × 10^4 cells
same,number of HL-60 cells per well,HL-60 cells; 48 hours incubation,186 ± 12 × 10^4 cells
same,number of HL-60 cells per well,HL-60 cells; 72 hours incubation,488 ± 24 × 10^4 cells
same,number of HL-60 cells per well,HL-60 cells; 96 hours incubation,712 ± 22 × 10^4 cells
same,number of clones of e-ras cells (M ± m),[8]; 0 hours of incubation,288 ± 4
same,number of clones of e-ras cells (M ± m),[8]; 24 hours of incubation,286 ± 4
same,number of clones of e-ras cells (M ± m),[8]; 48 hours of incubation,264 ± 3
same,number of clones of e-ras cells (M ± m),[8]; 72 hours of incubation,234 ± 6
same,number of clones of e-ras cells after UV-irradiation (M ± m),[9]; 0 hours,288 ± 4
same,number of clones of e-ras cells after UV-irradiation (M ± m),[9]; 24 hours,186 ± 4
same,number of clones of e-ras cells after UV-irradiation (M ± m),[9]; 48 hours,124 ± 3
same,number of clones of e-ras cells after UV-irradiation (M ± m),[9]; 72 hours,84 ± 6
"N[C@@H](CCC(=O)N[C@@H](CS)C(=O)NCC(=O)O)C(=O)O [GSH, γ-glutamyl-cysteinyl-glycine]",Blood leukocyte count,[10],4.8 ± 10^9/L and 5.7 ± 10^9/L and 4.95 ± 10^9/L
same,Blood lymphocyte count,[10],3.4 ± 10^9/L and 4.6 ± 10^9/L and 4.0 ± 10^9/L
same,Bone marrow CFU,[10],22.1 and 25.6 and 25.3
same,Bone marrow nucleated cell number,[10],17.2 ± 10^6/L and 24.7 ± 10^6/L and 22.5 ± 10^6/L
same,IL-2 production by splenocytes,[10],8.6 U/mL and 9.3 U/mL and 9.9 U/mL
same,Spleen CFU,[10],56.3 and 66.3 and 59.8
same,Spleen nucleated cell number,[10],4.3 ± 10^7/L and 6.93 ± 10^7/L and 5.5 ± 10^7/L
same,SRBC agglutinin titer,"[11]; cyclophosphamide-treated mice immunized with SRBC, day 7 after immunization",1.94 log2 and 1.62 log2 and 2.09 log2
same,Blood leukocyte count,[11]; [12],5.2 ± 10^9/L and 6.3 ± 10^9/L and 6.2 ± 10^9/L
same,Blood lymphocyte count,[11]; [12],4.3 ± 10^9/L and 4.6 ± 10^9/L and 5.31 ± 10^9/L
same,Bone marrow nucleated cell number,[11]; [12],32.2 ± 10^6/L and 36.4 ± 10^6/L
same,IL-2 production by splenocytes,[11]; [12],17.2 U/mL and 15.3 U/mL and 20.3 U/mL

# — patent publication US6492329B1, “Cytokine and hemopoietic factor endogenous production enhancer and methods of use thereof” (Novelos Therapeutics, Inc., priority 1995, dated 2002)
